Tests used:
septoria leaf blotch [1] = test: Test Example 10: control test of septoria leaf blotch of wheat, cup in greenhouse, inoculated, variety ARKEOS (Tables 15 to 19); type: in vivo, Septoria tritici
Experimental: (§1) Degree of Disease Occurrence=Σ(Index×Number of Leaves of Index)/(4×Number of Investigated Leaves)×100 (1)
Seed of wheat (variety: ARKEOS) was used, and 100 ml of suspension waters each containing the compound shown in Table 15 at an amount shown in Table 15 (synthesis was performed in accordance with a known method, a liquid dissolved in a small amount of DMSO or formulated 10% wettable powder was used) were prepared. Seed having a mass of 1 kg was mixed into the suspension water with a rate shown in Examples of Table 15, and air-dried, and then, 5 seeds were sown in a plastic cup having a diameter of 6 cm containing mixed soil of river sand and horticultural soil and managed in a greenhouse. In Comparative Examples, 20 ml of suspension water of an active ingredient, which had been adjusted to have a concentration shown in Table 15 to 19, was sprayed in a frame of 45 cm×45 cm in which a pot of wheat seedlings was placed (corresponding to 1000 L/ha) 14 days after seeding. On day 14 after seeding, a spore suspension in which conidiospores of septoria leaf blotch are suspended was sprayed and inoculated on leaves of wheat seedlings (after the sprayed liquid was dried in the case of Comparative Examples), a lesion area ratio of septoria leaf blotch in a second leaf was investigated approximately 35 days after seeding according to the criteria in Table 1, and the degree of disease occurrence was calculated by the above calculation formula (1).

powdery mildew [2] = test: Test Example 9: control test of wheat powdery mildew, cup in greenhouse, inoculated, Norin No. 61 (Tables 10 to 14); type: in vivo, Blumeria graminis; parameters: key to Degree of Disease Occurrence: Σ(index×leaves)/(4×leaves investigated)×100; 0 = no disease, 100 = max
Experimental: as §1
Seed of wheat (variety: Norin No. 61) was used, and 100 ml of suspension waters each containing the compound shown in Table 10 at an amount shown in […] (synthesis was performed in accordance with a known method, a solution dissolved in DMSO or formulated 10% wettable powder was used) were prepared. The seed having a mass of 1 kg of wheat was mixed into the suspension water with a chemical treated amount shown in Table 10, and air-dried, and then, 5 seeds were sown in a plastic cup having a diameter of 6 cm containing river sand and managed in a greenhouse. In Comparative Examples, 20 ml of the suspension water of an active ingredient, which had been adjusted to have a concentration shown in Table 10, was sprayed in a frame of 45 cm×45 cm in which a pot of wheat seedlings was placed (corresponding to 1000 L/ha) 14 days after seeding. On day 14 after seeding, conidiospores of powdery mildew were sifted over leaves of wheat seedlings and inoculated onto the leaves (after the sprayed liquid was dried in the case of Comparative Examples), a lesion area ratio of powdery mildew in a first leaf was investigated 21 days after seeding according to the criteria in Table 1, and the degree of disease occurrence was calculated by the above calculation formula (1).

[3] = system: wheat (variety: Norin No. 61); test: Test Example 4: emergence rate of wheat seed; type: in vivo
Experimental: (§2) Seed having a mass of 1 kg of wheat (variety: Norin No. 61) was mixed into 100 ml of suspension water containing 0.5 g of the above compound (6) or compound (3) (synthesis was performed in accordance with a known method, formulated 10% wettable powder was used) and air-dried, and then, 12 seeds were sown in a plastic cup having a diameter of 6 cm containing river sand and managed in a greenhouse. The number of emerged seeds was investigated nine days after seeding, and an emergence rate was calculated (Examples 10 and 11). In Comparative Example 11 and Comparative Example 12, 20 ml of suspension water of an active ingredient, which had been adjusted to have a concentration shown in Table 5, was sprayed in a frame of 45 cm×45 cm in which a pot of wheat seedlings was placed (corresponding to 1000 L/ha) 15 days after seeding. On day 15 after seeding, conidiospores of powdery mildew were sifted over leaves of wheat seedlings and inoculated onto the leaves (after the sprayed liquid was dried in the case of Comparative Examples), a lesion area ratio of powdery mildew in a first leaf was investigated 22 days after seeding according to the criteria in Table 1, and the degree of disease occurrence was calculated by the above calculation formula (1).

powdery mildew [4] = test: Test Example 4: control test of wheat powdery mildew, cup in greenhouse, inoculated; type: in vivo, Blumeria graminis; conditions: for Degree of Disease Occurrence: 22 days after seeding
Experimental: as §1, §2

septoria leaf blotch [5] = test: Test Example 8: control test of septoria leaf blotch of wheat, cup in greenhouse, inoculated, wheat variety Apache; type: in vivo, Septoria tritici; parameters: key to Degree of Disease Occurrence: Σ(index×leaves of index)/(4×investigated leaves)×100; 0–100 scale; conditions: for Degree of Disease Occurrence: 31 days after seeding
Experimental: as §1
Seed having a mass of 1 kg of wheat (variety: Apache) was mixed into 100 ml of suspension water containing from 0.5 g or 5 g of the 3,4-dichloroisothiazole derivative of the compound (6) or (3) (synthesis was performed in accordance with a known method, formulated 10% wettable powder was used) and air-dried, and then, 12 seeds were sown in a plastic cup having a diameter of 6 cm containing river sand and managed in a greenhouse. The number of emerged seeds was investigated 12 days after seeding, and an emergence rate was calculated. In Comparative Examples 19 to 22, 20 ml of suspension water of an active ingredient, which had been adjusted to have a concentration shown in Table 9, was sprayed in a frame of 45 cm×45 cm in which a pot of wheat seedlings was placed (corresponding to 1000 L/ha) 12 days after seeding. A spore suspension in which conidiospores of septoria leaf blotch are suspended were sprayed and inoculated on leaves of wheat seedlings 12 days after seeding (after the sprayed liquid was dried in the case of Comparative Examples), a lesion area ratio of septoria leaf blotch in a second leaf was investigated 31 days after seeding according to the criteria in Table 1, and the degree of disease occurrence was calculated by the above calculation formula (1).

[6] = Table 16, Foliage Treatment, spray 500 ppm suspension water (corresponding to 500 g/ha) 14 days after seeding, untreated 57.1
[7] = Table 16, Foliage Treatment, spray 500 ppm suspension water (corresponding to 500 g/ha) 14 days after seeding, untreated 93.3
[8] = Table 16, Seed Treatment, 5 g/Seed 1 kg (corresponding to 500 g/ha), untreated 57.1
[9] = Table 16, Seed Treatment, 5 g/Seed 1 kg (corresponding to 500 g/ha), untreated 93.3
[10] = Table 11 run (different day), Foliage Treatment, spray 5 ppm (5 g/ha)
[11] = Table 11 run (different day), Foliage Treatment, spray 50 ppm (50 g/ha)
[12] = Table 11 run (different day), Seed Treatment 0.05 g/Seed 1 kg (5 g/ha)
[13] = Table 11 run (different day), Seed Treatment 0.5 g/Seed 1 kg (50 g/ha)
[14] = Table 12 run (different day), Foliage Treatment, spray 50 ppm (50 g/ha)
[15] = Table 12 run (different day), Seed Treatment 0.5 g/Seed 1 kg (50 g/ha)
[16] = Table 15, Foliage Treatment, spray 50 ppm (50 g/ha) day 14, second leaf, approximately 35 days after seeding
[17] = Table 15, Foliage Treatment, spray 500 ppm (500 g/ha) day 14, second leaf, approximately 35 days after seeding
[18] = Table 15, Seed Treatment 0.5 g/Seed 1 kg (50 g/ha), second leaf, approximately 35 days after seeding
[19] = Table 15, Seed Treatment 5 g/Seed 1 kg (500 g/ha), second leaf, approximately 35 days after seeding
[20] = Table 16, Foliage Treatment, spray 10 ppm suspension water (corresponding to 10 g/ha) 14 days after seeding, untreated 57.1
[21] = Table 16, Foliage Treatment, spray 10 ppm suspension water (corresponding to 10 g/ha) 14 days after seeding, untreated 93.3
[22] = Table 16, Seed Treatment, 0.1 g/Seed 1 kg (corresponding to 10 g/ha), untreated 57.1
[23] = Table 16, Seed Treatment, 0.1 g/Seed 1 kg (corresponding to 10 g/ha), untreated 93.3
[24] = Foliage Spray group, 50 ppm (50 g/ha) 15 days after seeding, emergence counted nine days after seeding
[25] = Seed Treatment 0.5 g/Seed 1 kg (50 g/ha), nine days after seeding
[26] = Foliage Spray 50 ppm suspension water (50 g/ha) day 15, first leaf
[27] = Seed Treatment 0.5 g/Seed 1 kg (50 g/ha), inoculated day 15, first leaf
[28] = Foliage Treatment, spray 50 ppm suspension water (50 g/ha) day 12, second leaf
[29] = Foliage Treatment, spray 500 ppm suspension water (500 g/ha) day 12, second leaf
[30] = Seed Treatment 0.5 g/Seed 1 kg, inoculated day 12, second leaf
[31] = Seed Treatment 5 g/Seed 1 kg (500 g/ha), inoculated day 12, second leaf
[32] = Table 10 run, Foliage Treatment, spray 5 ppm (5 g/ha) day 14, first leaf, 21 days after seeding
[33] = Table 10 run, Foliage Treatment, spray 50 ppm (50 g/ha) day 14, first leaf, 21 days after seeding
[34] = Table 10 run, Seed Treatment 0.05 g/Seed 1 kg (5 g/ha), first leaf, 21 days after seeding
[35] = Table 10 run, Seed Treatment 0.5 g/Seed 1 kg (50 g/ha), first leaf, 21 days after seeding

SMILES | Degree of Disease Occurrence (septoria leaf blotch [1]; [6]) | Disease Leaf Rate (%) (septoria leaf blotch [1]; [7]) | Degree of Disease Occurrence (septoria leaf blotch [1]; [8]) | Disease Leaf Rate (%) (septoria leaf blotch [1]; [9]) | Degree of Disease Occurrence (septoria leaf blotch [1]; [16]) | Disease Leaf Rate (%) (septoria leaf blotch [1]; [16]) | Degree of Disease Occurrence (septoria leaf blotch [1]; [17]) | Disease Leaf Rate (%) (septoria leaf blotch [1]; [17]) | Degree of Disease Occurrence (septoria leaf blotch [1]; [18]) | Disease Leaf Rate (%) (septoria leaf blotch [1]; [18]) | Degree of Disease Occurrence (septoria leaf blotch [1]; [19]) | Disease Leaf Rate (%) (septoria leaf blotch [1]; [19]) | Degree of Disease Occurrence (septoria leaf blotch [1]; [20]) | Disease Leaf Rate (%) (septoria leaf blotch [1]; [21]) | Degree of Disease Occurrence (septoria leaf blotch [1]; [22]) | Disease Leaf Rate (%) (septoria leaf blotch [1]; [23]) | Emergence Rate (%) [3, 24] [%] | Emergence Rate (%) [3, 25] [%] | Degree of Disease Occurrence (powdery mildew [4]; [26]) | Degree of Disease Occurrence (powdery mildew [4]; [27]) | further results
O=S1(=O)N=C(OCc2snc(Cl)c2Cl)c2ccccc21 [Compound (1), Dichlobentiazox] | 71.9 | 100.0 | 45.7 | 95.8 | – | – | – | – | – | – | – | – | – | – | – | – | – | – | – | – | Degree of Disease Occurrence (powdery mildew [2]; [10]): 95.3; Disease Leaf Rate (%) (powdery mildew [2]; [10]): 100%; Degree of Disease Occurrence (powdery mildew [2]; [11]): 89.1; Disease Leaf Rate (%) (powdery mildew [2]; [11]): 100%; Degree of Disease Occurrence (powdery mildew [2]; [12]): 56.4; Disease Leaf Rate (%) (powdery mildew [2]; [12]): 93.8%; Degree of Disease Occurrence (powdery mildew [2]; [13]): 22.7; Disease Leaf Rate (%) (powdery mildew [2]; [13]): 71.9%; Degree of Disease Occurrence (powdery mildew [2]; [14]): 21.7; Disease Leaf Rate (%) (powdery mildew [2]; [14]): 46.7%; Degree of Disease Occurrence (powdery mildew [2]; [15]): 0.0; Disease Leaf Rate (%) (powdery mildew [2]; [15]): 0.0%
OCc1snc(Cl)c1Cl [Compound (3)] | 77.4 | 100.0 | 40.4 | 85.7 | 29.3 | 97.0 | 37.5 | 91.7 | 22.2 | 77.8 | 8.2 | 32.8 | 62.5 | 100.0 | 40.6 | 96.9 | 97.2 | 97.2 | 62.1 | 17.0 | disease occurrence of powdery mildew, seed treatment compared with spraying on foliage during a growing period (powdery mildew [4]): suppressed lower; Degree of Disease Occurrence (septoria leaf blotch [5]; [28]): 29.3; Degree of Disease Occurrence (septoria leaf blotch [5]; [29]): 37.5; Degree of Disease Occurrence (septoria leaf blotch [5]; [30]): 22.2; Degree of Disease Occurrence (septoria leaf blotch [5]; [31]): 8.2; disease occurrence of septoria leaf blotch, seed treatment compared with spraying on foliage during a growing period (septoria leaf blotch [5]): suppressed lower; Degree of Disease Occurrence (powdery mildew [2]; [32]): 63.5; Disease Leaf Rate (%) (powdery mildew [2]; [32]): 100.0%; Degree of Disease Occurrence (powdery mildew [2]; [33]): 56.3; Disease Leaf Rate (%) (powdery mildew [2]; [33]): 100.0%; Degree of Disease Occurrence (powdery mildew [2]; [34]): 45.2; Disease Leaf Rate (%) (powdery mildew [2]; [34]): 100.0%; Degree of Disease Occurrence (powdery mildew [2]; [35]): 14.8; Disease Leaf Rate (%) (powdery mildew [2]; [35]): 59.4%
O=C(O)c1snc(Cl)c1Cl [Compound (6)] | 86.2 | 95.2 | 41.3 | 95.0 | 29.5 | 88.9 | 48.5 | 100.0 | 16.1 | 58.8 | 4.2 | 16.9 | 53.3 | 100.0 | 34.7 | 84.4 | 100 | 97.2 | 22.2 | 16.3 | disease occurrence of powdery mildew, seed treatment compared with spraying on foliage during a growing period (powdery mildew [4]): suppressed lower; Degree of Disease Occurrence (septoria leaf blotch [5]; [28]): 29.5; Degree of Disease Occurrence (septoria leaf blotch [5]; [29]): 48.5; Degree of Disease Occurrence (septoria leaf blotch [5]; [30]): 16.1; Degree of Disease Occurrence (septoria leaf blotch [5]; [31]): 4.2; disease occurrence of septoria leaf blotch, seed treatment compared with spraying on foliage during a growing period (septoria leaf blotch [5]): suppressed lower; Degree of Disease Occurrence (powdery mildew [2]; [32]): 56.3; Disease Leaf Rate (%) (powdery mildew [2]; [32]): 100.0%; Degree of Disease Occurrence (powdery mildew [2]; [33]): 40.6; Disease Leaf Rate (%) (powdery mildew [2]; [33]): 87.5%; Degree of Disease Occurrence (powdery mildew [2]; [34]): 48.5; Disease Leaf Rate (%) (powdery mildew [2]; [34]): 93.8%; Degree of Disease Occurrence (powdery mildew [2]; [35]): 28.1; Disease Leaf Rate (%) (powdery mildew [2]; [35]): 87.1%

— patent US20220000117A1, “METHOD FOR CONTROLLING DISEASES IN SMALL GRAIN CEREALS, SEED OF SMALL GRAIN CEREALS, AND METHOD FOR SUPPRESSING LODGING DAMAGE IN SMALL GRAIN CEREALS” (KUMIAI CHEMICAL INDUSTRY CO., LTD., priority 2019, published 2022)
